Source: ChEMBL document CHEMBL4616702 (ACS Med Chem Lett, 2020)

Assays:
[1] = AUC (0 to 24 hrs) in Balb/c mouse at 10 mg/kg, po; format: ADME, organism-based; design: dose 10 mg/kg, time < 24 hr, route oral; details: in vivo
[2] = target: T1, Nuclear receptor ROR-alpha (Homo sapiens, UniProt P35398); experiment: Inverse agonist activity at Gal4-fused RORalpha (unknown origin)
T1 sequence (P35398 whole entry): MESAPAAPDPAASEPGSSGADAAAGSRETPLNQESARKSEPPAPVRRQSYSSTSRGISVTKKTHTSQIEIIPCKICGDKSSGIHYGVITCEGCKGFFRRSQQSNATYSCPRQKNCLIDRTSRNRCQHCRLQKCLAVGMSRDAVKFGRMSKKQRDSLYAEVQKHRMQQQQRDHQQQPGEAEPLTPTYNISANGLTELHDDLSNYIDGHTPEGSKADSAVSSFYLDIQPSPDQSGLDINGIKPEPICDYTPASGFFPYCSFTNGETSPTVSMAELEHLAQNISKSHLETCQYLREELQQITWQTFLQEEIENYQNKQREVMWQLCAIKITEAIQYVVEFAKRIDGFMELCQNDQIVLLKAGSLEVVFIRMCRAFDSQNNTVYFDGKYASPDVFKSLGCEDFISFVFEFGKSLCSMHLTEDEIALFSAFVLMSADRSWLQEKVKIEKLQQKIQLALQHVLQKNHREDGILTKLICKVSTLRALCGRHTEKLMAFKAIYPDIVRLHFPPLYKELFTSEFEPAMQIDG

[3] = target: T2, Oxysterols receptor LXR-alpha (Homo sapiens, UniProt Q13133); experiment: Inverse agonist activity at LXRalpha (unknown origin)
T2 sequence (Q13133 whole entry): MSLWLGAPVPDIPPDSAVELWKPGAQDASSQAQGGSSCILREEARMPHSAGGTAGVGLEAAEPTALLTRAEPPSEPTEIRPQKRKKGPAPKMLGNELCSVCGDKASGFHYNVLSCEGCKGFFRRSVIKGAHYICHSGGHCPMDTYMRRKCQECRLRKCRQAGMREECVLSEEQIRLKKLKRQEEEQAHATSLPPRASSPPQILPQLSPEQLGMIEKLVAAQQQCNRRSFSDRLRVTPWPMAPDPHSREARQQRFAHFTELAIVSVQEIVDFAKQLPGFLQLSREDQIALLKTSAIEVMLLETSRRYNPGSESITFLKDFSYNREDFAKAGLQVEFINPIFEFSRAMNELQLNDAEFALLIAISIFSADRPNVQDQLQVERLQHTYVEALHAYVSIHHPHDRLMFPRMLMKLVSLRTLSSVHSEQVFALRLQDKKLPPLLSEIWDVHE

[4] = target: T3, Oxysterols receptor LXR-beta (Homo sapiens, UniProt P55055); experiment: Inverse agonist activity at LXRbeta (unknown origin)
T3 sequence (P55055 whole entry): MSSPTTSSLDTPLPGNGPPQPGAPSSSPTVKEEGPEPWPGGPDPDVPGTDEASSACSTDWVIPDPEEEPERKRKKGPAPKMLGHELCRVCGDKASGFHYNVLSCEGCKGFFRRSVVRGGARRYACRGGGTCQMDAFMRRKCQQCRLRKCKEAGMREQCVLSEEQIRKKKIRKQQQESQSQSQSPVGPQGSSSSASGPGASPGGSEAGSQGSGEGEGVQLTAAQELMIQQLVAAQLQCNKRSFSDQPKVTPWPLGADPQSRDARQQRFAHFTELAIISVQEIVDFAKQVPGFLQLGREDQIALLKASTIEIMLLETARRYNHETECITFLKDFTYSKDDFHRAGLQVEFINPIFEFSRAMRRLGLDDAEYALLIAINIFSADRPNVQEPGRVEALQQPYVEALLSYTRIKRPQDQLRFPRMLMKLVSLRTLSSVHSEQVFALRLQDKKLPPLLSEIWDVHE

Cytochrome P450 2C8 = target: T4, Cytochrome P450 2C8 (Homo sapiens, UniProt P10632); experiment: Inhibition of recombinant CYP2C8 (unknown origin); format: ADME
T4 sequence (P10632 whole entry): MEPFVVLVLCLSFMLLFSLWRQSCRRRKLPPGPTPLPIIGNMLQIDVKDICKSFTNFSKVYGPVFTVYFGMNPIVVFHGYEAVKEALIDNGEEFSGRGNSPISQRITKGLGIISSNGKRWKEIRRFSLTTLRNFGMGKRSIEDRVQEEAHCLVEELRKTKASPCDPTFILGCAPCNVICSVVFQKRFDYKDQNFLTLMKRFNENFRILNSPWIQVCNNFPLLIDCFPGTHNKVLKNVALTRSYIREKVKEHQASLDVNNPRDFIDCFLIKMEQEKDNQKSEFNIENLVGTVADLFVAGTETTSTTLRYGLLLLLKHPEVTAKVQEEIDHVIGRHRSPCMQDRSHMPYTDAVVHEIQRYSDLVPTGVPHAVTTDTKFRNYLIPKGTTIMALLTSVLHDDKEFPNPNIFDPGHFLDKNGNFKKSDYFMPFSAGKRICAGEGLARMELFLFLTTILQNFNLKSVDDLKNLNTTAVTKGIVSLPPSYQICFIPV

Cytochrome P450 2C9 = Cytochrome P450 2C9 (Homo sapiens, UniProt P11712); experiment: Inhibition of recombinant CYP2C9 (unknown origin); format: ADME
[5] = Permeability across apical to basolateral side in human Caco2 cells; format: ADME, cell-based; details: Caco-2, read-out: permeability
[6] = Cmax in mouse at 4 mg/kg, po; format: ADME, organism-based; design: dose 4 mg/kg, route oral; details: in vivo
[7] = Clearance in rat at 2 mg/kg, iv; format: ADME, organism-based; details: in vivo
[8] = Clearance in cynomolgus monkey at 1 mg/kg, iv; format: ADME, organism-based, Macaca fascicularis; details: in vivo
[9] = Cmax in cynomolgus monkey at 1 mg/kg, po; format: ADME, organism-based, Macaca fascicularis; design: dose 1 mg/kg, route oral; details: in vivo
[10] = Volume of distribution in steady state in mouse at 2 mg/kg, iv; format: ADME, organism-based; details: in vivo, read-out: Vdss
[11] = Volume of distribution in steady state in rat at 2 mg/kg, iv; format: ADME, organism-based; details: in vivo, read-out: Vdss
[12] = AUC (0 to 24 hrs) in rat at 4 mg/kg, po; format: ADME, organism-based; design: time < 24 hr, dose 4 mg/kg, route oral; details: in vivo
[13] = AUC (0 to 24 hrs) in dog at 1 mg/kg, po; format: ADME, organism-based, Canis lupus familiaris; design: time < 24 hr, dose 1 mg/kg, route oral; details: in vivo
[14] = Oral bioavailability in dog at 1 mg/kg; format: ADME, organism-based, Canis lupus familiaris; details: in vivo
[15] = Half life in cynomolgus monkey at 1 mg/kg, iv; format: ADME, organism-based, Macaca fascicularis; details: in vivo
[16] = Half life in human liver microsomes in presence of NADPH by LC/MS/MS method; format: ADME, Microsome
[17] = Drug concentration in Balb/c mouse at 10 mg/kg, po measured upto 24 hrs; format: ADME, organism-based; details: in vivo, read-out: Drug uptake

Sequence of Cytochrome P450 2C9 (P11712 whole entry): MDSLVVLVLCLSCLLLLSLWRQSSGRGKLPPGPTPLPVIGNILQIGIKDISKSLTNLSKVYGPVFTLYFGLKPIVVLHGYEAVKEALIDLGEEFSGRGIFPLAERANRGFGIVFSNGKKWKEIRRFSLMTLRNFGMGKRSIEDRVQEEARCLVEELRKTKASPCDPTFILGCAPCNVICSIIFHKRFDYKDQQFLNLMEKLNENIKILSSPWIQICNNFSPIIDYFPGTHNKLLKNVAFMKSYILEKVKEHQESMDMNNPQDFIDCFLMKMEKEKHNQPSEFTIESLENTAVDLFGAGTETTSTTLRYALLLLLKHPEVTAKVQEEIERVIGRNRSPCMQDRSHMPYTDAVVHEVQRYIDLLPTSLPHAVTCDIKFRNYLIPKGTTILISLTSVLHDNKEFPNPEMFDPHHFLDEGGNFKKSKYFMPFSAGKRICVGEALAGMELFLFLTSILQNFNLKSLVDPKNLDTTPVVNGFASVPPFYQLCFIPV

C[C@H]1C[C@H](C(=O)O)CC[C@H]1C(=O)N1CC[C@@]2(S(=O)(=O)c3ccc(F)cc3)c3ccc(C(F)(C(F)(F)F)C(F)(F)F)cc3CC[C@@H]12 [BMS-986251]
AUC(0-t) at 24 h [1]: 68 µM·h
EC50 [2]: > 10 µM
EC50 [3]: > 7.5 µM
EC50 [4]: > 7.5 µM
IC50 (Cytochrome P450 2C8): 16 µM
IC50 (Cytochrome P450 2C9): > 20 µM
Papp A→B [5]: 24 ×10⁻⁶ cm/s
Cmax [6]: 4.8 µM
clearance [7]: 1.3 mL/min/kg
clearance [8]: 1.1 mL/min/kg
Cmax [9]: 3.1 µM
Vd [10]: 1.9 L/kg
Vd [11]: 1.2 L/kg
AUC(0-t) at 24 h [12]: 64 µM·h
AUC(0-t) at 24 h [13]: 120 µM·h
bioavailability [14]: 100%
half-life [15]: 33 h
half-life [16]: > 2 h
concentration at 24 h [17]: 0.52 µM
